# Source: PubChem BioAssay (NCI)
#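 GI50 = concentration required for 50% inhibition of growth. TGI is the concentration that stops growth completely.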
# Experiments:
# Assay in all cases: DTP human tumour cell line panel, 384-well format
# [1] = system: HCC-2998 colon
# [2] = system: DU-145 prostate
# [3] = system: SW-620 colon
# [4] = system: MALME-3M melanoma
# [5] = system: SK-OV-3 ovarian
# [6] = system: ACHN renal
# [7] = system: CAKI-1 renal
# [8] = system: LOX IMVI melanoma
# [9] = system: COLO 205 colon
# [10] = system: NCI/ADR-RES ovarian
# [11] = system: SF-539 CNS
# [12] = system: OVCAR-3 ovarian
# [13] = system: SNB-19 CNS
# [14] = system: A549 NSCLC
# [15] = system: K-562 leukemia
# [16] = system: HOP-92 NSCLC
# [17] = system: NCI-H23 lung
# [18] = system: SR leukemia
# [19] = system: HL-60(TB) leukemia
# [20] = system: UACC-257 melanoma
# [21] = system: SK-MEL-28 melanoma
# [22] = system: SK-MEL-5 melanoma
# [23] = system: MDA-MB-231 breast
# [24] = system: NCI-H226 lung
# [25] = system: IGROV1 ovarian
# [26] = system: MDA-MB-468 breast
# [27] = system: SNB-75 CNS
# [28] = system: PC-3 prostate
# [29] = system: OVCAR-4 ovarian
# [30] = system: SF-268 CNS
# [31] = system: NCI-H460 NSCLC
# [32] = system: HT29 colon
# [33] = system: NCI-H522 lung
# [34] = system: HCT-116 colon
# [35] = system: RXF 393 renal
# [36] = system: TK-10 renal
# [37] = system: UACC-62 melanoma
# [38] = system: MOLT-4 leukemia
# [39] = system: RPMI-8226 leukemia
# [40] = system: SN12C renal
# [41] = system: UO-31 renal
# [42] = system: HOP-62 NSCLC
# [43] = system: OVCAR-8 ovarian
# [44] = system: KM12 colon
# [45] = system: SK-MEL-2 melanoma
# [46] = system: HCT-15 colon
# [47] = system: M14 melanoma
# [48] = system: NCI-H322M lung
# [49] = system: A498 renal
# [50] = system: SF-295 CNS
# [51] = system: EKVX NSCLC
# [52] = system: MDA-MB-435 melanoma
# [53] = system: BT-549 breast
# [54] = system: 786-0 renal
# [55] = system: CCRF-CEM leukemia
# [56] = system: MCF7 breast
# [57] = system: U251 glioblastoma
# [58] = system: OVCAR-5 ovarian
# [59] = system: T-47D breast
smiles,measurement,setting,value
CO[C@H]1/C=C/C[C@H](C)[C@@H](C)S(=O)(=O)NC(=O)c2ccc3c(c2)N(C[C@@H]2CC[C@H]21)C[C@@]1(CCCc2cc(Cl)ccc21)CO3,GI50,[1],1.62 µM
same,TGI,[1],3.84 µM
same,GI50,[2],3.87 µM
same,TGI,[2],13.1 µM
same,GI50,[3],2.12 µM
same,TGI,[3],4.77 µM
same,GI50,[4],2.83 µM
same,TGI,[4],7.6 µM
same,GI50,[5],4.24 µM
same,TGI,[5],13.1 µM
same,GI50,[6],4.5 µM
same,TGI,[6],14.7 µM
same,GI50,[7],11.3 µM
same,TGI,[7],23.5 µM
same,GI50,[8],2.29 µM
same,TGI,[8],4.18 µM
same,GI50,[9],4.06 µM
same,TGI,[9],11.3 µM
same,GI50,[10],1.74 µM
same,TGI,[10],3.64 µM
same,GI50,[11],1.75 µM
same,TGI,[11],3.42 µM
same,GI50,[12],1.71 µM
same,TGI,[12],3.22 µM
same,GI50,[13],3.81 µM
same,TGI,[13],11.9 µM
same,GI50,[14],3.37 µM
same,TGI,[14],11.1 µM
same,GI50,[15],2 µM
same,TGI,[15],5.52 µM
same,GI50,[16],2.13 µM
same,TGI,[16],5.71 µM
same,GI50,[17],0.758 µM
same,TGI,[17],2.2 µM
same,GI50,[18],0.0287 µM
same,TGI,[18],0.173 µM
same,GI50,[19],0.021 µM
same,TGI,[19],0.0423 µM
same,GI50,[20],2.95 µM
same,TGI,[20],9.81 µM
same,GI50,[21],2.67 µM
same,TGI,[21],6.64 µM
same,GI50,[22],1.66 µM
same,TGI,[22],3.07 µM
same,GI50,[23],3.64 µM
same,TGI,[23],9.55 µM
same,GI50,[24],3.1 µM
same,TGI,[24],9.05 µM
same,GI50,[25],3.71 µM
same,TGI,[25],13.4 µM
same,GI50,[26],0.339 µM
same,TGI,[26],1.07 µM
same,GI50,[27],3.6 µM
same,TGI,[27],9.04 µM
same,GI50,[28],3.93 µM
same,TGI,[28],14 µM
same,GI50,[29],1.33 µM
same,TGI,[29],3.39 µM
same,GI50,[30],2.45 µM
same,TGI,[30],7.41 µM
same,GI50,[31],1.78 µM
same,TGI,[31],3.44 µM
same,GI50,[32],3.59 µM
same,TGI,[32],12.4 µM
same,GI50,[33],0.95 µM
same,TGI,[33],2.27 µM
same,GI50,[34],2.93 µM
same,TGI,[34],8.98 µM
same,GI50,[35],0.689 µM
same,TGI,[35],2.35 µM
same,GI50,[36],4.88 µM
same,TGI,[36],15.7 µM
same,GI50,[37],0.284 µM
same,TGI,[37],0.762 µM
same,GI50,[38],0.263 µM
same,TGI,[38],0.794 µM
same,GI50,[39],0.0172 µM
same,TGI,[39],0.0405 µM
same,GI50,[40],2.92 µM
same,TGI,[40],7.99 µM
same,GI50,[41],6.3 µM
same,TGI,[41],18.2 µM
same,GI50,[42],2.61 µM
same,TGI,[42],6.27 µM
same,GI50,[43],2.81 µM
same,TGI,[43],7.42 µM
same,GI50,[44],3.97 µM
same,TGI,[44],13.5 µM
same,GI50,[45],0.211 µM
same,TGI,[45],0.677 µM
same,GI50,[46],3.39 µM
same,TGI,[46],10.6 µM
same,GI50,[47],2.07 µM
same,TGI,[47],4.4 µM
same,GI50,[48],6.3 µM
same,TGI,[48],18.4 µM
same,GI50,[49],3.29 µM
same,TGI,[49],12.5 µM
same,GI50,[50],1.8 µM
same,TGI,[50],3.72 µM
same,GI50,[51],1.98 µM
same,TGI,[51],7.23 µM
same,GI50,[52],1.98 µM
same,TGI,[52],4.87 µM
same,GI50,[53],1.65 µM
same,TGI,[53],3.33 µM
same,GI50,[54],4.4 µM
same,TGI,[54],15.8 µM
same,GI50,[55],0.468 µM
same,TGI,[55],1.11 µM
same,GI50,[56],1.31 µM
same,TGI,[56],4 µM
same,GI50,[57],3.2 µM
same,TGI,[57],9.92 µM
same,GI50,[58],8.16 µM
same,TGI,[58],20.1 µM
same,GI50,[59],2.79 µM
same,TGI,[59],11.1 µM
